A short description of this assay: MIC of test compounds against various organisms. Format: cell-based, S. aureus, S. pneumoniae, H. influenzae, E.faecalis. Here is the method:
The MIC (μg/ml) of test compounds against various organisms was determined: S. aureus Oxford, S. aureus WCUH29, S. pneumoniae 1629, S. pneumoniae N1387, S. pneumoniae ERY 2, H. influenzae Q1, E.faecalis 1.

Setting [1] is: against one or more of S. aureus Oxford, S. aureus WCUH29, S. pneumoniae 1629, S. pneumoniae N1387, S. pneumoniae ERY 2, H. influenzae Q1, E.faecalis 1 (gram positive and gram negative bacteria), read-out: MIC.

Where a name gives a salt, the structure may show the parent alone. Read-outs that look alike come from different tables or passages of the source.

For `COc1ccc2nccc([C@@H](O)CN3CCC(NCc4cc5c(cc4[N+](=O)[O-])OCO5)CC3)c2c1.O=C(O)C(=O)O.O=C(O)C(=O)O` [Example 18, (R)-1-(6-Methoxy-quinolin-4-yl)-2-{4-[(6-nitro-benzo[1,3]dioxol-5-ylmethyl)-amino]-piperidin-1-yl}-ethanol dioxalate], the MIC under setting [1] was no more than 0.125 µg/mL. `COc1ccc2nccc([C@@H](O)CN3CCC(NCc4ccc5c(c4)NC(=O)CO5)CC3)c2c1` [Example 5, 6-({1-[(R)-2-Hydroxy-2-(6-methoxy-quinolin-4-yl)-ethyl]-piperidin-4-ylamino}-methyl)-4H-benzo[1,4]oxazin-3-one dioxalate]: the MIC was no more than 2 µg/mL.

As to `COc1ccc2nccc([C@@H](O)CN3CCC(NCc4cnc5c(c4)NC(=O)CS5)CC3)c2c1` [Example 20, 7-({1-[(R)-2-Hydroxy-2-(6-methoxy-quinolin-4-yl)-ethyl]-piperidin-4-ylamino}-methyl)-1-H-pyrido[2,3-b][1,4]thiazin-2-one dioxalate], under setting [1], the MIC is no more than 2 µg/mL. As to `COc1ccc2nccc([C@@H](O)CN3CCC(NS(=O)(=O)c4ccc5c(c4)NC(=O)CCS5)CC3)c2n1` [Example 17, 4-Oxo-2,3,4,5-tetrahydro-benzo[b][1,4]thiazepine-7-sulfonic acid {1-[(R)-2-hydroxy-2-(6-methoxy-[1,5]naphthyridin-4-yl)-ethyl]-piperidin-4-yl}-amide oxalate], the MIC is no more than 2 µg/mL. On the same count and under the same terms, under `COc1ccc2nccc([C@@H](O)CN3CCC(NCc4ccc5c(n4)OCCO5)CC3)c2c1` [Example 19, (R)-2-{4-[(2,3-Dihydro-[1,4]dioxino[2,3-b]pyridin-6-ylmethyl)-amino]-piperidin-1-yl}-1-(6-methoxy-quinolin-4-yl)-ethanol dioxalate] stands no more than 0.125 µg/mL. Still for that read-out and setting: under `COc1ccc2nccc([C@@H](O)CN3CCC(NCc4ccc5c(c4)NC(=O)C(C)S5)CC3)c2c1` (mixture of isomers) [Example 21, 6-({1-[(R)-2-Hydroxy-2-(6-methoxy-quinolin-4-yl)-ethyl)-piperidin-4-ylamino}-methyl)-2-(R/S)-methyl-4H-benzo[1,4]thiazin-3-one dioxalate] stands no more than 2 µg/mL; under `COc1ccc2nccc([C@@H](O)CN3CCC(NCc4ccc5c(c4)NC(=O)CS5)CC3)c2n1` [Example 16, 6-({1-[(R)-2-Hydroxy-2-(6-methoxy-[1,5]naphthyridin-4-yl)-ethyl]-piperidin-4-ylamino}-methyl)-4H-benzo[1,4]thiazin-3-one dioxalate], no more than 0.125 µg/mL.

For the origin of these results see US7205408B2, “Quinolines and nitrogenated derivative thereof substituted in 4-position by a piperidine-containing moiety and their use as antibacterial agents” (priority 1920, dated 2007).
